Results reported in PubChem BioAssay (NCI).
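These data come from cells grown in 96-well plates and exposed to compound for 48 hours at five concentrations. The concentration for 50% growth inhibition is given as GI50. TGI marks complete inhibition of growth.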

Tests used:
Experiment in all cases: DTP human tumour cell line panel, 48 h
DU-145 prostate = system: DU-145 prostate
NCI-H226 lung = system: NCI-H226 lung
MOLT-4 leukemia = system: MOLT-4 leukemia
NCI/ADR-RES ovarian = system: NCI/ADR-RES ovarian
ACHN renal = system: ACHN renal
T-47D breast = system: T-47D breast
SK-MEL-2 melanoma = system: SK-MEL-2 melanoma
SK-MEL-5 melanoma = system: SK-MEL-5 melanoma
RXF 393 renal = system: RXF 393 renal
OVCAR-3 ovarian = system: OVCAR-3 ovarian
HOP-92 NSCLC = system: HOP-92 NSCLC
MALME-3M melanoma = system: MALME-3M melanoma
SF-268 CNS = system: SF-268 CNS
PC-3 prostate = system: PC-3 prostate
SK-MEL-28 melanoma = system: SK-MEL-28 melanoma
UACC-62 melanoma = system: UACC-62 melanoma
HT29 colon = system: HT29 colon
OVCAR-4 ovarian = system: OVCAR-4 ovarian
786-0 renal = system: 786-0 renal
HCT-116 colon = system: HCT-116 colon
CCRF-CEM leukemia = system: CCRF-CEM leukemia
A498 renal = system: A498 renal
HOP-62 NSCLC = system: HOP-62 NSCLC
UACC-257 melanoma = system: UACC-257 melanoma
HCT-15 colon = system: HCT-15 colon
CAKI-1 renal = system: CAKI-1 renal
HCC-2998 colon = system: HCC-2998 colon
UO-31 renal = system: UO-31 renal
NCI-H522 lung = system: NCI-H522 lung
KM12 colon = system: KM12 colon
MDA-MB-435 = system: MDA-MB-435
OVCAR-8 ovarian = system: OVCAR-8 ovarian
HL-60(TB) leukemia = system: HL-60(TB) leukemia
LOX IMVI melanoma = system: LOX IMVI melanoma
U251 CNS = system: U251 CNS
EKVX NSCLC = system: EKVX NSCLC
A549 NSCLC = system: A549 NSCLC
OVCAR-5 ovarian = system: OVCAR-5 ovarian
SF-295 CNS = system: SF-295 CNS
COLO 205 colon = system: COLO 205 colon
SW-620 colon = system: SW-620 colon
NCI-H460 lung = system: NCI-H460 lung
IGROV1 ovarian = system: IGROV1 ovarian
M14 melanoma = system: M14 melanoma
NCI-H23 lung = system: NCI-H23 lung
SNB-19 CNS = system: SNB-19 CNS
MDA-MB-231 breast = system: MDA-MB-231 breast
BT-549 breast = system: BT-549 breast
HS 578T breast = system: HS 578T breast
RPMI-8226 leukemia = system: RPMI-8226 leukemia
SK-OV-3 ovarian = system: SK-OV-3 ovarian
K-562 leukemia = system: K-562 leukemia
MCF7 breast = system: MCF7 breast
SN12C renal = system: SN12C renal
TK-10 renal = system: TK-10 renal
SF-539 CNS = system: SF-539 CNS

CS(=O)(=O)Nc1ccc(Nc2cc[nH]c3ccc4nccc4c23)cc1
TGI (DU-145 prostate): 22.2 µM | TGI (NCI-H226 lung): 24.5 µM | TGI (MOLT-4 leukemia): 7.78 µM | TGI (NCI/ADR-RES ovarian): > 100 µM | TGI (ACHN renal): 65.3 µM | TGI (T-47D breast): 22.6 µM | TGI (SK-MEL-2 melanoma): 23.9 µM | TGI (SK-MEL-5 melanoma): 24.7 µM | TGI (RXF 393 renal): 30.2 µM | TGI (OVCAR-3 ovarian): 32.5 µM | TGI (HOP-92 NSCLC): 46.3 µM | TGI (MALME-3M melanoma): 18.4 µM | TGI (SF-268 CNS): 18.9 µM | TGI (PC-3 prostate): 30.3 µM | TGI (SK-MEL-28 melanoma): 32.2 µM | TGI (UACC-62 melanoma): 28.1 µM | TGI (HT29 colon): 48.4 µM | TGI (OVCAR-4 ovarian): 26.2 µM | TGI (786-0 renal): 38.4 µM | TGI (HCT-116 colon): > 43.1 µM | TGI (CCRF-CEM leukemia): > 67.8 µM | TGI (A498 renal): 34.2 µM | TGI (HOP-62 NSCLC): 37.3 µM | TGI (UACC-257 melanoma): 31.5 µM | TGI (HCT-15 colon): > 100 µM | TGI (CAKI-1 renal): 68.4 µM | TGI (HCC-2998 colon): 16.3 µM | TGI (UO-31 renal): > 81.2 µM | TGI (NCI-H522 lung): 24.3 µM | TGI (KM12 colon): 28.1 µM | TGI (MDA-MB-435): 29.5 µM | TGI (OVCAR-8 ovarian): > 65.1 µM | TGI (HL-60(TB) leukemia): 42 µM | TGI (LOX IMVI melanoma): 34.2 µM | TGI (U251 CNS): 22 µM | TGI (EKVX NSCLC): 58.7 µM | TGI (A549 NSCLC): 38.8 µM | TGI (OVCAR-5 ovarian): 61.1 µM | TGI (SF-295 CNS): 62.2 µM | TGI (COLO 205 colon): 44.2 µM | TGI (SW-620 colon): 49.8 µM | TGI (NCI-H460 lung): 31.8 µM | TGI (IGROV1 ovarian): 58.5 µM | TGI (M14 melanoma): 30.4 µM | TGI (NCI-H23 lung): 38.5 µM | TGI (SNB-19 CNS): 26.3 µM | TGI (MDA-MB-231 breast): 21.6 µM | TGI (BT-549 breast): 40 µM | TGI (HS 578T breast): > 60.8 µM | TGI (RPMI-8226 leukemia): 44.6 µM | TGI (SK-OV-3 ovarian): > 100 µM | TGI (K-562 leukemia): 32 µM | TGI (MCF7 breast): 20.7 µM | TGI (SN12C renal): 32.3 µM | TGI (TK-10 renal): 82.1 µM

C=C1C(=O)O[C@H]2[C@H]1CC/C(COC(=O)NCc1ccc(Cn3c(=O)sn(CCI)c3=O)cc1)=C\CC[C@@]1(C)O[C@@H]21
GI50 (DU-145 prostate): 1.82 µM | TGI (DU-145 prostate): 3.29 µM | GI50 (NCI-H226 lung): 15.1 µM | TGI (NCI-H226 lung): 33.1 µM | GI50 (MOLT-4 leukemia): 1.35 µM | TGI (MOLT-4 leukemia): 5.35 µM | GI50 (NCI/ADR-RES ovarian): 20.3 µM | TGI (NCI/ADR-RES ovarian): 47.2 µM | GI50 (ACHN renal): 1.89 µM | TGI (ACHN renal): 3.37 µM | GI50 (T-47D breast): 1.32 µM | TGI (T-47D breast): 3.06 µM | GI50 (SK-MEL-2 melanoma): 11.7 µM | TGI (SK-MEL-2 melanoma): 26.2 µM | GI50 (SK-MEL-5 melanoma): 5.37 µM | TGI (SK-MEL-5 melanoma): 17.9 µM | GI50 (RXF 393 renal): 1.61 µM | TGI (RXF 393 renal): 3.13 µM | GI50 (OVCAR-3 ovarian): 1.64 µM | TGI (OVCAR-3 ovarian): 3.05 µM | GI50 (HOP-92 NSCLC): 1.38 µM | TGI (HOP-92 NSCLC): 2.76 µM | GI50 (MALME-3M melanoma): 1.68 µM | TGI (MALME-3M melanoma): 3.4 µM | GI50 (SF-268 CNS): 2.41 µM | TGI (SF-268 CNS): 6.26 µM | GI50 (PC-3 prostate): 1.75 µM | TGI (PC-3 prostate): 3.33 µM | GI50 (SK-MEL-28 melanoma): 2.06 µM | TGI (SK-MEL-28 melanoma): 3.74 µM | GI50 (UACC-62 melanoma): 1.98 µM | TGI (UACC-62 melanoma): 4.08 µM | GI50 (HT29 colon): 2.1 µM | TGI (HT29 colon): 4.05 µM | GI50 (OVCAR-4 ovarian): 2.02 µM | TGI (OVCAR-4 ovarian): 4.19 µM | GI50 (786-0 renal): 1.82 µM | TGI (786-0 renal): 3.36 µM | GI50 (HCT-116 colon): 1.76 µM | TGI (HCT-116 colon): 3.27 µM | GI50 (A498 renal): 4.44 µM | TGI (A498 renal): 20 µM | GI50 (HOP-62 NSCLC): 11.7 µM | TGI (HOP-62 NSCLC): 24.2 µM | GI50 (UACC-257 melanoma): 2.24 µM | TGI (UACC-257 melanoma): 4.82 µM | GI50 (HCT-15 colon): 1.91 µM | TGI (HCT-15 colon): 4.1 µM | GI50 (CAKI-1 renal): 3.79 µM | TGI (CAKI-1 renal): 14 µM | GI50 (HCC-2998 colon): 10.4 µM | TGI (HCC-2998 colon): 22.5 µM | GI50 (UO-31 renal): 1.65 µM | TGI (UO-31 renal): 3.11 µM | GI50 (NCI-H522 lung): 1.72 µM | TGI (NCI-H522 lung): 3.36 µM | GI50 (KM12 colon): 8.15 µM | TGI (KM12 colon): 23.1 µM | GI50 (MDA-MB-435): 2.45 µM | TGI (MDA-MB-435): 6.62 µM | GI50 (OVCAR-8 ovarian): 4.55 µM | TGI (OVCAR-8 ovarian): 18.9 µM | GI50 (LOX IMVI melanoma): 1.69 µM | TGI (LOX IMVI melanoma): 3.11 µM | GI50 (U251 CNS): 4.67 µM | TGI (U251 CNS): 16 µM | GI50 (EKVX NSCLC): 2.11 µM | TGI (EKVX NSCLC): 5.58 µM | GI50 (A549 NSCLC): 16.6 µM | TGI (A549 NSCLC): 32.4 µM | GI50 (OVCAR-5 ovarian): 3.27 µM | TGI (OVCAR-5 ovarian): 10.1 µM | GI50 (SF-295 CNS): 13.6 µM | TGI (SF-295 CNS): 27.1 µM | GI50 (COLO 205 colon): 1.86 µM | TGI (COLO 205 colon): 3.55 µM | GI50 (SW-620 colon): 1.66 µM | TGI (SW-620 colon): 3.25 µM | GI50 (NCI-H460 lung): 6.42 µM | TGI (NCI-H460 lung): 22.7 µM | GI50 (IGROV1 ovarian): 2.08 µM | TGI (IGROV1 ovarian): 4.07 µM | GI50 (M14 melanoma): 1.82 µM | TGI (M14 melanoma): 3.59 µM | GI50 (NCI-H23 lung): 3.46 µM | TGI (NCI-H23 lung): 13.6 µM | GI50 (SNB-19 CNS): 6.88 µM | TGI (SNB-19 CNS): 19.9 µM | GI50 (MDA-MB-231 breast): 1.77 µM | TGI (MDA-MB-231 breast): 3.31 µM | GI50 (BT-549 breast): 2.4 µM | TGI (BT-549 breast): 6.08 µM | GI50 (HS 578T breast): 7.29 µM | TGI (HS 578T breast): 42.4 µM | GI50 (RPMI-8226 leukemia): 1.98 µM | TGI (RPMI-8226 leukemia): 5.11 µM | GI50 (SK-OV-3 ovarian): 15.2 µM | TGI (SK-OV-3 ovarian): 28.5 µM | GI50 (SF-539 CNS): 1.72 µM | TGI (SF-539 CNS): 3.18 µM | GI50 (K-562 leukemia): 0.655 µM | TGI (K-562 leukemia): > 100 µM | GI50 (MCF7 breast): 1.71 µM | TGI (MCF7 breast): 3.64 µM | GI50 (SN12C renal): 2.16 µM | TGI (SN12C renal): 5.38 µM | GI50 (TK-10 renal): 1.91 µM | TGI (TK-10 renal): 3.68 µM
